Data set [1] deals with H4IIE cells. Kind of data set: Glucose production assay in H4IIE cells. The format is cell-based, rat. The procedure:
Equal numbers of Human HepG2 or rat H4IIE cells (1-1.5×10^5 cells/well) were seeded on 96 well plates in 10% FBS-containing media for 24 hr. Cells were then washed twice with PBS, and treated with various concentrations of compounds, metformin or insulin in 100 μl of glucose production media (glucose-free, phenol red-free DMEM media supplemented with 20 mM sodium lactate, 2 mM sodium pyruvate and 5 mM HEPES) at 37° C. for 24 hr (H4IIE cells only) or 48 hr (HepG2 cell only). Cells were also incubated with 0.24% DMSO (the maximal volume of DMSO solvent used in the experiments).
(§1) After the above treatments, 50 μl of culture media were collected, and subjected to glucose analysis using Molecular Probes Amplex Red glucose assay kit (Cat #A22189) according to the manufacturer's protocol. Cell numbers or viability in the culture plate after the above compound treatments were determined using Promega's CellTiter96® AQueous One Solution Cell Proliferation Assay kits, according to the manufacturer's protocol and instructions. In brief, after removing 50 μl of culture media for glucose assay, cells were incubated with AQueous One solution (25 μl stock solution and 50 μl prewarmed PBS/per well) at 37° C. for 1 hour, and the absorbance of OD490 nm in each sample was determined by the Bio-Tek microplate reader. Cell viability in culture wells were determined by the subtraction of OD490 nm in cultured cells with the OD490 nm in plain culture media (without seeding of cells). Glucose production in the culture cells were obtained by normalizing the glucose concentration in culture media by cell viability in each well. At least 3 samples per each treatment were examined for the above analysis. Data are presented as Mean±SEM of those samples. Experiments were repeated at least twice.
The half maximal inhibitory concentration (IC50 values) of Compound #43 or metformin for the inhibition of glucose production were determined using the ED50 Plus v1.0 online software.

Data set [2] concerns H4IIE cells. Kind of data set: Cell viability (CellTiter96 AQueous One) in H4IIE cells. As to conditions: tested doses. The format is cell-based, rat. The procedure: as §1
For a further data set, the system named is Lepr^db/db mice. Nature of the data set: Glucose tolerance test in Lepr^db/db mice. Format: in vivo, mouse. The protocol:
Male Lepr^db/db mice at 38 days of age were intraperitoneally (ip) injected daily with physiological saline ([…]) containing 0.2% DMSO, Compound #C, Compound #50, Compound #68, and/or Compound #43 (25 μg selenium or sulfur equivalents of each compound per kilogram body weight, diluted in sterile physiological saline) for periods ranging from 43-90 days. Body weights of the above treated mice were recorded daily using a balance and any visible abnormal animal gross morphology and walking behavior were monitored daily. After the treatments, animals were fasted overnight and then subjected to blood glucose or HbA1c assays, glucose tolerance tests or tissue collections.
For comparative studies of any potential anti-diabetic effects of Compounds #43, #69 and #70, male Lepr^db/db mice at 41 days of age were intraperitoneally (ip) injected daily with physiological saline ([…]) containing 0.2% DMSO, Compound #43, Compound #69, or Compound #70 (25 μg selenium of each compound per kilogram body weight, diluted in sterile physiological saline). After the treatments for 43 days, animals were fasted overnight and then subjected to blood glucose and glucose tolerance tests. After daily treatments of these compounds for 90 days, sera from these animals were collected and then subjected to blood HbA1c assays.
Glucose tolerance tests were performed as described previously (Li et al, Int J Biol Sci 2008; 4:29-36). Briefly, overnight-fasted Lepr^db/db mice after saline or compound treatments were injected intraperitoneally with 2 grams/kg body weight of 20% D-glucose. Blood glucose levels at time 0 (immediately before the injection of glucose), 0.25, 0.5, 1 and 2 hours after injection of glucose were determined using a glucometer with a maximum glucose measurement capacity of 600 mg/dL. Because of this, blood glucose levels over 600 mg/dL were counted as 600 mg/dL in the data analysis.

Another data set has as its system Glut4. Kind of data set: QRT-PCR of Glut4 mRNA in AML-12 cells. Format: cell-based, mouse. The protocol:
For RNA analysis of basal Glut4 (Slc2a4) expression (in the absence of diabetic stimuli 8-CPT/Dex), amplified AML-12 cells were cultured on 24-well (1×10^5 cells/well) plates overnight in 10% FBS ITS- and Dex-free DMEM/F12 media. These cells were washed twice with PBS to remove residual sera and then were incubated with vehicle (0.024% DMSO) or with Compound #43 (300 ppb) in serum-free DMEM/F12 media for 24 hours.
For RNA analysis of Glut4 expression in AML-12 cells cultured under simulated diabetic conditions, amplified AML-12 cells were cultured on 24-well (2×10^5 cells/well) plates in 10% FBS ITS- and Dex-free DMEM/F12 media overnight. Then these cells were washed twice with PBS to remove any potential residual sera and then were serum-starved in plain DMEM/F12 media overnight. These serum-starved AML-12 cells were then incubated with vehicle (0.024% DMSO) or with Compound #43 (300 ppb) in the presence of diabetic stimuli, 0.1 mM 8-CPT (Sigma) and 0.5 μM Dex, in serum-free plain DMEM/F12 media for 6 and 24 hours.
Total liver RNA from saline- or Compound #43-treated Lepr^db/db mice was isolated using a Qiagen RNAeasy RNA isolation kit according to the Manufacturer's protocol. Total RNA from cultured cells was isolated using Trizol (Invitrogen) according to the manufacturer's protocol, and then incubated with DNase I to remove any potential contaminating genomic DNA. […]

A further data set has as its system STZ-induced T1D mice. Nature of the data set: Blood glucose in STZ-induced type 1 diabetic mice after acute treatment. The format is in vivo, mouse. As to conditions: 5.4 mg/kg ip, fasted. The procedure:
Five-week-old C57/BL6 male mice were intraperitoneally injected with streptozotocin (STZ, 55 mg/kg mouse body weigh) daily for 5 days, and then housed in the vivarium for another 14 days for recovery. Blood glucose levels of these mice were measured using a glucometer. Those animals with a blood glucose level higher than 500 mg/dL were considered to be type I diabetic (T1D). These T1D mice with unfasted blood glucose levels between 500-550 mg/dL were fasted overnight and injected intraperitoneally with Compound #43 at a dose of 5.4 mg/kg body weight or physiological saline containing 2% DMSO (Compound #43 stock solvent). At 1, 2 and 3 hours post-injection, blood glucose levels in these mice were measured using the glucometer.

The structures appear in SMILES notation.

A word on the IC50: it is the point on the concentration scale where inhibition reaches its midpoint. As for `C[Se]C[C@H]1O[C@@H](n2cnc3c(N)ncnc32)C(OC(C)=O)C1OC(C)=O` (stereo partly shown) [Compound #43, Adenosine, 5′-Se-methyl-5′-selino-, 2′,3′-diacetate], the IC50 with H4IIE cells [1] (Rattus norvegicus, H4IIE, 24 h, read-out: IC50 (inhibition of glucose production)) worked out at 17.8 µM. Moreover, the “potency relative to metformin in inhibition of glucose production” value with H4IIE cells [1] (cultured rat liver cells) is listed as “at least 15 times”. In the data set on H4IIE cells [1] (serum-free, 24 hr (FIG. 2)), the “effect on glucose production in H4IIE cells” value is recorded as “dose-dependent decrease in glucose production”. Further, in the data set on H4IIE cells [2], the “toxic effect on cell viability” value is listed as “No toxic effect”. Also, the “glucose tolerance (overall)” value is on record as “dramatically improves glucose tolerance” with Lepr^db/db mice (25 μg selenium or sulfur/kg ip daily 2 months (FIG. 8B)); “can almost completely restore insulin action” in the data set on Lepr^db/db mice (25 μg selenium/kg ip daily 43 days from day 38, glucose 2 g/kg (FIG. 8A)); “can dramatically improve glucose tolerance” with Lepr^db/db mice (25 μg selenium/kg ip daily 43 days from day 41 (FIG. 8C)). Also, the “blood glucose level at 2 hr after glucose injection” value is “almost completely back to pre-injection glucose levels” with Lepr^db/db mice (FIG. 8A, 43 days treatment); “significantly lower than Compound #68-treated littermates” in the data set on Lepr^db/db mice (FIG. 8B, 2 months treatment); “much lower than Saline-, Compound #69- or Compound #70-treated mice” in the data set on Lepr^db/db mice (FIG. 8C, 43 days treatment). The “blood glucose levels at 0.25, 0.5 and 1 hr after glucose injection” value in the data set on Lepr^db/db mice (FIG. 8A, 43 days treatment) is listed as “visibly lower than saline-, Compound #C- or #50-treated mice”. In the data set with Lepr^db/db mice (FIG. 8C, 43 days treatment), the “blood glucose level at 1 hour after glucose injection” value is reported as “significantly lower than saline-, Compound #69- or Compound #70-treated littermates”. In addition, in the data set on Glut4 (300 ppb with 8-CPT/Dex, 6 and 24 hours (FIG. 16B)), the “effect on Glut4 mRNA expression” value was “significant increase in Glut4 mRNA expression”. Moreover, in the data set with Glut4 (300 ppb, serum-free, 24 hours (FIG. 16A)), the “increase of basal Glut4 mRNA expression” value was “about 2.1 fold”. The blood glucose levels entry in the data set with STZ-induced T1D mice (2 and 3 hours (FIG. 28)) is listed as “significant decrease in blood glucose levels”; with STZ-induced T1D mice (1 hour (FIG. 28)), “trend of decreased blood glucose levels”.

Source of the values: patent US11613552B2, “Pharmaceutical agents, compositions, and methods relating thereto” (Alltech, Inc., priority 2017, dated 2023).
